Among the data in PubChem BioAssay AID179 (DTP/NCI, 2004) are EC50, IC50 and outcome values, retold here.

This test deals with CEM cells HIV-1 protection, formazan growth assay. Description: NCI AIDS Antiviral Assay. The note with it: for IC50: measured here: growth of uninfected CEM cells. The method in brief:
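Human CEM cells, uninfected and HIV-1-infected, received five drug concentrations, and growth was read by soluble formazan assay. Compounds giving at least 50% protection were retested; reproducible 100% protection defined confirmed active.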

Active and inactive are the calls of the source.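 How the source made its calls: active means compounds giving half or more protection of infected cells from virus-caused growth loss, again on retest; inactive means the rest.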 Some results are limits rather than exact numbers.

Consider `NC(=O)c1ncn(C2OC(CO)C(O)C2O)c1NC=O` (stereo not given), for which the EC50 was above 200 µM and the IC50 is above 200 µM.
Regarding `Cc1cc2nc(-c3ccccn3)c(-c3ccccn3)nc2cc1C`, the EC50 was above 200 µM and the IC50 was above 200 µM.
Consider `Cc1c2c(n3c(nc4ccccc43)c1C#N)N(c1ccc(F)cc1)CC2`, for which the EC50 is above 200 µM and the IC50 is above 200 µM.
In the case of `CN(/N=C/c1cccc2cccnc12)c1ccccc1`, the outcome was inactive.
In the case of `CC(=O)CNC(=O)OC(C)(C)C`, the result was inactive.
With `CC1CC(=O)C(CC(=O)O)[C@H]1C(C(=O)C(=O)Nc1cc(Cl)ccc1Cl)[N+](=O)[O-]` (stereo not given in full), the result was inactive.
As to `O=S(=O)(O)c1ccc(O)c2ncc(Cl)cc12`, the EC50 is above 200 µM and the IC50 is above 200 µM.
Turning to `CCCCCCCn1ccnc1NCCCCCCCCCCNc1nccn1CCCCCCC`, the EC50 is above 37.2 µM and the IC50 amounted to 10 µM.
Turning to `S=C1CSc2c(cnc3ccccc23)N1`, the EC50 is above 200 µM and the IC50 was 105 µM.
As to `CN(Cc1ccccc1)c1nc(=[N+](C)C)ss1`, the result was inactive.
Regarding `Cn1nnc2c(C(N)=O)ncn2c1=O`, the EC50 was above 1290 µM and the IC50 turned out to be 776 µM.
The matching figures for `CC(C)=NNC1=NC(C)(C)P(=O)(N2CCCC2C(=O)O)S1` (stereo not given): above 135 µM and 132 µM.
Consider `CC(=O)OCCc1cccnc1/C=N/O`, for which the EC50 is above 1200 µM and the IC50 was 204 µM.
The matching figures for `O=C1CCCCC/C1=C\c1ccc(Cl)cc1`: above 200 µM and 27.5 µM.
Regarding `COc1ccc([N+](=O)[O-])cc1NC(=O)c1ccc2c(c1)C(=O)OC2=O`, the EC50 was 29.5 µM and the IC50 amounted to 64.6 µM.
On to `CCCCCCCCCCCCCCCC(=O)Nc1ccn(C2CCC(COP(=O)(O)OC3CC(n4cc(F)c(=O)[nH]c4=O)OC3CO)O2)c(=O)n1` (stereo not given), for which the EC50 was above 0.126 µM and the IC50 stood at 0.038 µM.
As for `COc1cc2c(cc1O)C(CSC)Cc1cc3c(cc1N(C)CC2)OCO3` (stereo not given), the EC50 was above 148 µM and the IC50 was 12 µM.
As for `O=[N+]([O-])/C=C/c1ccc(O)cc1`, the outcome was inactive.
The same measure, in the same setting: the same measure for `O=C1C=CC(=C(c2ccc(O)cc2)c2ccc(O)cc2)C=C1`: “inactive”.
With `NCCN.O=C([O-])C(=O)[O-].O=C([O-])C(=O)[O-].[Co+3].[K+]`, the EC50 was above 372 µM and the IC50 is 269 µM.
The matching figures for `CC/C=N\N1C(N)=C(C#N)C(C#N)(C#N)C1CC` (stereo not given): above 200 µM and 64.6 µM.
For `CC(C)(C)c1cc(/C=C2\CCC/C(=C\c3cc(C(C)(C)C)c(O)c(C(C)(C)C)c3)C2=O)cc(C(C)(C)C)c1O`, the EC50 is above 200 µM and the IC50 is above 200 µM.
Consider `Cc1nc2c(nc1C)C(=O)c1ccccc1C2=O`, for which the EC50 was above 200 µM and the IC50 was determined as 4.57 µM.
As to `N#CC(C#N)=Cc1ccccc1C(=O)O`, the EC50 was above 200 µM and the half-inhibitory concentration (IC50) was determined as 110 µM.
With `O=C1Oc2c(ccc3ccccc23)C2OCNCC12` (stereo not given), the EC50 is above 200 µM and the IC50 is 129 µM.
Turning to `O=C1NCc2c1[nH]c(=O)[nH]c2=O`, the EC50 was above 155 µM and the IC50 is above 155 µM.
As for `CC1CC(OP(=O)(OCc2ccccc2)OCc2ccccc2)[C@@H](OCc2ccccc2)C(OCc2ccccc2)C1OCc1ccccc1` (stereo not given in full), the EC50 was above 100 µM and the IC50 is above 100 µM.
As to `Cn1cnc2c(C#N)c(C#N)nn2c1=O`, the EC50 was above 200 µM and the IC50 is above 200 µM.
As to `O=C(/C=C/c1ccc(Cl)cc1)c1ccccc1`, the EC50 is above 56.2 µM and the IC50 came to 11.2 µM.
With `CCOC(=O)N(NC(=O)NC(C)C)c1ccccc1`, the EC50 is above 200 µM and the IC50 is above 200 µM.
Consider `CC1=C(CC2C(=O)N(c3ccccc3)S(=O)(=O)NC2C)C(=O)N(c2ccccc2)S(=O)(=O)N1C` (stereo not given), for which the EC50 was above 490 µM and the IC50 came to 16.6 µM.
For the molecule `CC(C)(C)OC(=O)NC(Cc1cnc[nH]1)C(=O)N1CCCC1C(N)=O` (stereo not given), the EC50 is above 200 µM and the IC50 is above 200 µM.
Consider `Cc1cc(C(F)(F)F)cc(-n2nc(NS(=O)(=O)c3cc(C)c(Cl)cc3S)nc2N)n1`, for which the EC50 was above 200 µM and the IC50 amounted to 166 µM.
Regarding `CN(C(=O)/C=C/c1ccccc1)C1C2CN3CCC(O2)C13` (stereo not given), the result was inactive.
Consider `COc1cccc(/C=C2/Sc3scc(-c4ccccc4)[n+]3C2=O)c1O`, for which the EC50 is above 200 µM and the IC50 was found to be 11.7 µM.
Consider `CCN1C(=O)N(C)C(O)c2c1nc1ccccn1c2=O` (stereo not given), for which the EC50 is above 182 µM and the IC50 was 11.5 µM.
For the molecule `CCCc1cc(=O)oc2c3c(cc(OC(C)COC)c12)O[C@H](C)[C@@H](C)C3=O` (stereo not given in full), the EC50 is above 77.6 µM and the IC50 was 13.8 µM.
With `S=P(NC1CCCCC1)(NC1CCCCC1)NC1CCCCC1`, the EC50 is above 200 µM and the IC50 was above 200 µM.
As for `O=P(O)(O)c1ccccc1Oc1ccccc1`, the EC50 was above 200 µM and the IC50 is above 200 µM.
Regarding `O=[N+]([O-])c1ccc(/C=C/c2ccc([N+](=O)[O-])cc2S(=O)(=O)O)c(S(=O)(=O)O)c1`, the result was inactive.
Consider `CC(=O)N1C(Nc2cnc3ccccc3c2)CCN1c1ccccc1` (stereo not given), for which the EC50 is above 200 µM and the IC50 is 17.8 µM.
As for `O=C1/C(=C/c2ccc(O)cc2)Oc2cc(O)ccc21`, the EC50 is above 204 µM and the IC50 was found to be 66.1 µM.
The matching figures for `CC(=O)c1cc(N=Nc2ccc(/C=C/c3ccc(N=Nc4cc(O)c5ncccc5c4C(C)=O)cc3S(=O)(=O)O)c(S(=O)(=O)O)c2)c(O)c2ncccc12`: above 29.5 µM and 28.8 µM.
With `CCN(CC)c1ccc2cc(C(=O)Nc3cccc4ccccc34)c(=N)oc2c1`, the EC50 was above 200 µM and the IC50 came to 12.6 µM.
In the case of `Cc1ccsc1/C=N/Nc1ncccn1`, the EC50 was above 200 µM and the IC50 is above 200 µM.
`Cc1nc(Nc2nc3ccccc3[nH]2)[nH]c(=O)c1CCO`: the EC50 was above 200 µM and the IC50 was above 200 µM.
As for `CCOC(=O)c1[nH]n(-c2ccccc2)c(=O)c1/C=N/C(=S)Nc1ccccc1OC`, the EC50 was above 200 µM and the IC50 turned out to be 93.3 µM.
In the case of `O=C1NC(=O)C(=CN2C(=O)/C(=C/c3ccc([N+](=O)[O-])cc3)SC2=S)C(=O)N1`, the EC50 is above 200 µM and the IC50 was 115 µM.
As to `CC(=O)NC(C)(C)C1CCC(C)=C(c2ccccc2)C1` (stereo not given), the EC50 was above 95.5 µM and the IC50 stood at 47.9 µM.
Take `COc1cc2c(oc(=O)c3c4occc4cc(OC)c23)c2cccc(OCc3ccccc3)c12`: the EC50 is above 1.15 µM and the IC50 is above 1.15 µM.
As to `COC(=O)C(=O)C(C(=O)C(=O)Nc1cc([N+](=O)[O-])ccc1[N+](=O)[O-])c1nc2ccc(C(=O)c3ccccc3)cc2[nH]c1=O` (stereo not given), the EC50 is above 158 µM and the IC50 stood at 83.2 µM.
For `Nc1ccc2oc3cccnc3c2c1` the same measures were above 977 µM and 372 µM.
Consider `CN1CCc2cc(O)c3cc2C1Cc1ccc(cc1)Oc1cc(ccc1OC(=O)C(C)(C)C)CC1c2c(cc(OC(=O)C(C)(C)C)c(OC(=O)C(C)(C)C)c2O3)CCN1C` (stereo not given), for which the result was inactive.
As to `NC1=NC2OC(CO)C(O)C2O1` (stereo not given), the EC50 was above 200 µM and the IC50 is above 200 µM.
In the case of `O=C(OC1CCC2OOC1O2)c1ccc([N+](=O)[O-])cc1` (stereo not given), the outcome was inactive.
For `COc1cc(Nc2cnc3cc(N)ccc3n2)cc(OC)c1OC`, the EC50 is above 200 µM and the IC50 was above 200 µM.
Regarding `N#Cc1c(/N=C/c2cc(Cl)cc(Cl)c2O)sc2c1CCC2`, the EC50 is above 200 µM and the IC50 was above 200 µM.
For `COc1cccc(N2N=C3c4ccccc4-n4c(nc5ccccc54)C3C2N)c1` (stereo not given), the EC50 was above 200 µM and the IC50 is above 200 µM.
In the case of `Cc1cc2ccccc2oc(=O)/c1=N\Nc1ccccc1`, the EC50 is above 200 µM and the IC50 was determined as 34.7 µM.
In the case of `COc1ccc(C2(OC)Oc3ccccc3C(=O)C2(O)OC)cc1OC` (stereo not given), the EC50 was above 200 µM and the IC50 turned out to be 11.5 µM.
For `O=C1N=C2SC(=S)NC(=S)N2NC12c1ccccc1-c1ccccc12`, the EC50 was above 200 µM and the IC50 worked out at 32.4 µM.
In the case of `Oc1ccc2ccccc2c1-c1c(Nc2ccccc2)ccc2ccccc12`, the EC50 is above 50.1 µM and the IC50 was determined as 8.91 µM.
As to `CCOC(=O)Nn1cnnc1Cc1ccccc1`, the EC50 was above 200 µM and the IC50 was above 200 µM.
For the molecule `COC(=O)C1CCC(=O)N1C(c1ccc(OC)cc1)c1ccc2c(c1)OCO2` (stereo not given), the EC50 was above 200 µM and the IC50 turned out to be 11.5 µM.
As to `C=CC(C#CC#CCCCCCCC)O[Si](C)(C)C(C)(C)C` (stereo not given), the outcome was inactive.
With `Cn1c(-c2ccc(/C=N/NC(N)=NCCCCCCN=C(N)N/N=C/c3ccc(-c4c[n+]5ccccc5n4C)cc3)cc2)c[n+]2ccccc12`, the EC50 was 2.24 µM and the IC50 was 30.2 µM.
For `Cn1c(=O)n2n(c1=O)[C@@H](c1ccccc1)[C@H]2c1ccccc1` the same measures were above 200 µM and 91.2 µM.
On to `CCCCc1c2c(nc3c1CCCC3=O)C(=O)CCC2`, for which the EC50 is above 5.37 µM and the IC50 was above 5.37 µM.
Regarding `CCCCC1(NN=C2CCCCC2)C(=O)N(c2ccccc2)N(c2ccccc2)C1=O`, the EC50 is above 200 µM and the IC50 turned out to be 102 µM.
For the molecule `CC(C)OC(=O)/C=C/C(=O)O/C=C/[N+](=O)[O-]`, the EC50 is above 200 µM and the IC50 was 105 µM.
`C[n+]1c(-c2ccc(/C=N/NC(=O)c3ccc(C(=O)N/N=C/c4ccc(-c5cn6ccccc6[n+]5C)cc4)nc3)cc2)cn2ccccc21`: the EC50 was 2.63 µM and the IC50 was found to be 21.9 µM.
In the case of `Cc1ccc(S(=O)(=O)OCCOC(Cc2ccccc2)n2cc(C)c(=O)[nH]c2=O)cc1` (stereo not given), the EC50 is above 200 µM and the IC50 is above 200 µM.
On to `CCOC1(OCC)CS(=O)(=O)C1c1ccccc1` (stereo not given), for which the EC50 was above 661 µM and the IC50 is above 661 µM.

A word on the EC50: it is the concentration needed to bring the measured effect to its halfway point. The IC50 is the midpoint of a concentration-inhibition curve. Higher therefore signals weaker potency.
